# Test system: BAT1 gene-overexpressing plant
# Assay: Restoring of hypocotyl height of BAT1 gene-overexpressing plant by brassinosteroid in the medium
# Type: in vivo, Arabidopsis thaliana
# Conditions: brassinosteroid added at 0.3 μM or 3 μM to 0.5x B5 medium, measured after 7 days (FIG. 5A)
# Protocol: The wild type and the BAT1 gene-overexpressing plant were vertically grown in a greenhouse whose temperature was regulated at about 23° C. under a long-day condition having a 24-hour period of 16-hour light condition/8-hour dark condition in 0.5× B5 media. A hypocotyl of the vertical-grown plant was distinctively shown in the BAT1 gene-overexpressing plant. Various brassinosteroids were treated at various concentrations, and a height of the hypocotyl was measured after 7 days. As the brassinosteroid, brassinolide (BL), castasterone (CS), teasterone (TE), or typhasterol (TY) was added at a concentration of 0.3 μM or 3 μM to the medium.
row,Compound,length (height) of hypocotyl
1,CC(C)[C@H](C)[C@@H](O)[C@H](O)[C@@H](C)[C@H]1CC[C@H]2[C@@H]3COC(=O)[C@H]4C[C@H](O)[C@H](O)C[C@]4(C)[C@H]3CC[C@]12C [brassinolide],significantly increased
2,CC(C)[C@H](C)[C@@H](O)[C@H](O)[C@@H](C)[C@H]1CC[C@H]2[C@@H]3CC(=O)[C@H]4C[C@H](O)CC[C@]4(C)[C@H]3CC[C@]12C [typhasterol],significantly increased
3,CC(C)[C@H](C)[C@@H](O)[C@H](O)[C@@H](C)[C@H]1CC[C@H]2[C@@H]3CC(=O)[C@H]4C[C@H](O)[C@H](O)C[C@]4(C)[C@H]3CC[C@]12C [castasterone],significantly increased

# From patent US20150299721A1, “BIOMASS PRODUCTION INCREASING GENE AND TRANSGENIC PLANT USING SAME” (POSTECH ACADEMY-INDUSTRY FOUNDATION, priority 2012, published 2015)
